Test systems include NCI-H522 lung; HT29 colon; HCT-15 colon; SK-MEL-5 melanoma; SF-539 CNS; NCI-H226 lung; SNB-19 CNS; MDA-MB-435; SR leukemia; MDA-N.
What all share (test): NCI anticancer screen, dose series, 48 h

Where “and” joins values, the source holds several entries; their conditions need not be identical. Identical values can stand only once.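 Interpolation was linear, between the two tested concentrations surrounding the appropriate level; five concentrations were tested over 48 hours in 96-well plates. GI50: concentration for 50% inhibition of growth. TGI: total growth inhibition.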

For 16 molecules, TGI and GI50 results are on record in PubChem BioAssay (NCI).

Regarding `CCc1ccccc1NC(=O)/C(N=O)=C(/C)O`, the TGI in the assay on NCI-H522 lung, in the assay on HT29 colon, in the assay with HCT-15 colon, in the assay with SK-MEL-5 melanoma, in the assay with SF-539 CNS and in the assay on NCI-H226 lung was more than 100 µM in each case. The molecule further returned a TGI in the assay with SNB-19 CNS of more than 100 µM.
Consider `CCOc1ccc(N/C(=C(/C(Cl)=C(/Cl)NC(C)(C)C)[N+](=O)[O-])n2nnc3ccccc32)cc1`, for which the TGI in the assay with HT29 colon is more than 100 µM; in the assay with HCT-15 colon, 39 µM; in the assay on SF-539 CNS it was 57.6 µM; in the assay with NCI-H226 lung, more than 100 µM; in the assay with MDA-MB-435 it was 33.6 µM; in the assay with SNB-19 CNS, more than 100 µM.
In the case of `COc1cccc(NC(=O)CC(=O)N2N=C(n3ccc4ccccc43)CC2c2ccccc2)c1` (stereo not given), the TGI in the assay on NCI-H522 lung, in the assay with HT29 colon, with HCT-15 colon, in the assay on SF-539 CNS and with SNB-19 CNS was more than 100 µM each time.
Turning to `N#CNC(=NCCc1c[nH]c2ccccc12)Oc1ccccc1`, the TGI with HT29 colon, in the assay on HCT-15 colon, in the assay on SK-MEL-5 melanoma, in the assay with SF-539 CNS, in the assay with NCI-H226 lung and with SNB-19 CNS was more than 100 µM in each case. For the same molecule, the TGI in the assay with SR leukemia is more than 100 µM.
With `NC(=O)NC12CC3CC(CC(F)(C3)C1)C2`, the TGI in the assay on NCI-H522 lung, in the assay with HT29 colon, in the assay on SF-539 CNS and in the assay on SNB-19 CNS was more than 100 µM in each case.
On to `O=C1c2ccccc2N2Oc3ccccc3C12c1ccccc1` (stereo not given), for which the TGI with NCI-H522 lung, with HT29 colon, with HCT-15 colon, with SK-MEL-5 melanoma, in the assay with SF-539 CNS and in the assay on NCI-H226 lung was more than 100 µM each time. Further, the TGI in the assay on SNB-19 CNS and with SR leukemia was more than 100 µM each time.
For `COc1cc(C2c3cc4c(cc3[C@@H](NCCN3CCOCC3)C3COC(=O)[C@H]23)OCO4)cc(OC)c1O` (stereo not given in full), the TGI in the assay with NCI-H522 lung is 13.1 µM and 9.66 µM; in the assay with HT29 colon, 18.1 µM and > 17.5 µM; with HCT-15 colon it was 15.7 µM and 14.2 µM; with SK-MEL-5 melanoma it was 1.88 µM and 12.7 µM; with SF-539 CNS it was 2.53 µM and 3.58 µM; in the assay on NCI-H226 lung, 1.29 µM and 1.64 µM. The TGI was more than 75 µM with SNB-19 CNS; 11.1 µM and 1.3 µM in the assay on SR leukemia. Further, the GI50 was 0.877 µM and 2.77 µM in the assay on SK-MEL-5 melanoma; 0.155 µM and 0.385 µM in the assay on NCI-H226 lung; 0.0227 µM and 0.0625 µM in the assay with SR leukemia.
Regarding `COc1ccc2nc3cccc([N+](=O)[O-])c3c(NCCCO)c2c1`, the GI50 in the assay on NCI-H522 lung is 0.00165 µM; in the assay with SF-539 CNS it was 0.00141 µM and 0.0132 µM; in the assay on NCI-H226 lung, 0.0181 µM and 0.0138 µM; in the assay on SNB-19 CNS, 0.0159 µM and 0.0252 µM; with SR leukemia, 0.0288 µM. Besides, the TGI in the assay on NCI-H522 lung was 0.00662 µM; with HT29 colon, 0.00183 µM; with SK-MEL-5 melanoma, 0.00431 µM; with SF-539 CNS it was 0.00518 µM and 0.0418 µM; in the assay on NCI-H226 lung, 0.0803 µM and 0.0618 µM; in the assay on MDA-MB-435 it was 0.0017 µM and 0.0128 µM. Also, in the assay on SNB-19 CNS, the TGI is 0.404 µM and 0.29 µM.
Take `O=C1CC(NCc2ccccc2)c2c(Cl)sc(Cl)c21` (stereo not given): the TGI in the assay with NCI-H522 lung is 18.3 µM; in the assay on HT29 colon, 74.5 µM; with HCT-15 colon, 46.9 µM; in the assay with SK-MEL-5 melanoma, more than 100 µM; in the assay with SF-539 CNS it was 57.5 µM; with NCI-H226 lung, more than 63.5 µM. For the same molecule, the TGI in the assay with MDA-MB-435 was 85.2 µM; with SNB-19 CNS it was more than 100 µM; in the assay with SR leukemia it was more than 100 µM.
Take `CC[C@@]1(O)C(=O)OCc2c1cc1n(c2=O)Cc2c-1nc1ccccc1c2/C=N/NC(=O)c1ccc(N)cc1`: the TGI in the assay on MDA-N was more than 37.6 µM; in the assay with HT29 colon it was more than 100 µM; with HCT-15 colon, more than 100 µM; in the assay with SK-MEL-5 melanoma, 1.1 µM; in the assay on SF-539 CNS, 0.019 µM; in the assay on NCI-H226 lung, 0.528 µM. Moreover, the TGI in the assay on MDA-MB-435 and in the assay on SNB-19 CNS was more than 100 µM throughout.
As for `CCc1cccc(C)c1NC(=O)C1=C(C)NC(C)=C(C(=O)Nc2c(C)cccc2CC)C1c1ccc2c(c1)OCO2`, the TGI came out at 30.1 µM in the assay with NCI-H522 lung; 39.4 µM in the assay on HT29 colon; 31.9 µM in the assay with SK-MEL-5 melanoma; 38.6 µM with SF-539 CNS; 49.5 µM in the assay with NCI-H226 lung; 96.4 µM in the assay on SNB-19 CNS.
Consider `CC(Oc1ccc(OCC2CCCCC2)cc1)C(=O)NCc1ccco1` (stereo not given), for which the TGI was 35.3 µM in the assay on NCI-H522 lung; 46.6 µM in the assay with HT29 colon; more than 100 µM with HCT-15 colon; 31.4 µM with SK-MEL-5 melanoma; 88.1 µM in the assay with SF-539 CNS; 94 µM in the assay on NCI-H226 lung. Moreover, the TGI with SNB-19 CNS was more than 100 µM.
As to `CCOc1ccc(NC(=O)C(=O)C(C(=O)c2ccc3ccccc3c2)C2OC(=O)c3ccccc32)cc1` (stereo not given), the TGI in the assay with NCI-H522 lung is 31.6 µM; in the assay with HT29 colon, more than 100 µM; in the assay with HCT-15 colon it was 43.4 µM; with SK-MEL-5 melanoma, 31.9 µM; in the assay on SF-539 CNS, 39 µM; with NCI-H226 lung, 13.5 µM. In the assay with SNB-19 CNS, the TGI is more than 100 µM.
On to `COc1ccc(CC2(Cc3ccc(OC)cc3)CCOC2=O)cc1`, for which the TGI with NCI-H522 lung, in the assay on HT29 colon, in the assay on NCI-H226 lung, in the assay with SNB-19 CNS and with SR leukemia was more than 100 µM in each case.
`Cn1c(N)nc(-c2ccc(Cl)cc2)c1SSc1c(-c2ccc(Cl)cc2)nc(N)n1C`: the TGI amounted to 3.34 µM in the assay on MDA-N; 3.62 µM in the assay on NCI-H522 lung; 4.74 µM in the assay with HT29 colon; 3.44 µM in the assay with HCT-15 colon; 3.2 µM with SK-MEL-5 melanoma; 3.33 µM in the assay with SF-539 CNS. The TGI in the assay on NCI-H226 lung is 83.5 µM; in the assay on MDA-MB-435, 3.54 µM; in the assay with SNB-19 CNS it was 27.8 µM.
Regarding `CC(=O)CC1=C(OC(C)C)C2(OCCO2)C1O` (stereo not given), the TGI in the assay on MDA-N, in the assay on NCI-H522 lung, in the assay with HT29 colon, in the assay with HCT-15 colon, in the assay on SK-MEL-5 melanoma and in the assay with SF-539 CNS was more than 100 µM throughout. The TGI in the assay on NCI-H226 lung, with MDA-MB-435 and with SNB-19 CNS was more than 100 µM each time.
